pIC50: −log10 of the molar value. Structures can show the parent of a compound that is named as a salt.
Biological target: HPK1 (Homo sapiens (Human), UniProt Q92918)
Experiment: HPK1 biochemical enzyme assay (microfluidic mobility shift assay)
Details: 1.5 nM HPK1, ATP 1 mM final, 60 min at RT, Caliper EZ Reader; read-out: HPK1 1000UMATP caliper IC50
Procedure: HPK1 biochemical enzyme assay: HPK1 enzyme inhibition was measured using a microfluidic mobility shift assay. […] Test compounds were titrated in ten point curves (top final assay concentration […]), and preincubated with enzyme/substrate mix for 30 min prior to initiation of the reaction by addition of ATP (1 mM final concentration) and substrate (1 μM final concentration; Carna Biosciences) diluted in assay buffer supplemented by MgCl2 (final assay concentration of 5 mM). Following 60 min incubation at RT, the reaction was terminated by addition of 60 µl/well termination buffer (Carna Biosciences) and signal determination using a Caliper EZ Reader (Perkin Elmer, UK). […] The compound numbers correspond to the compound numbers in Table 1.

Chain of HPK1 (Q92918 whole entry): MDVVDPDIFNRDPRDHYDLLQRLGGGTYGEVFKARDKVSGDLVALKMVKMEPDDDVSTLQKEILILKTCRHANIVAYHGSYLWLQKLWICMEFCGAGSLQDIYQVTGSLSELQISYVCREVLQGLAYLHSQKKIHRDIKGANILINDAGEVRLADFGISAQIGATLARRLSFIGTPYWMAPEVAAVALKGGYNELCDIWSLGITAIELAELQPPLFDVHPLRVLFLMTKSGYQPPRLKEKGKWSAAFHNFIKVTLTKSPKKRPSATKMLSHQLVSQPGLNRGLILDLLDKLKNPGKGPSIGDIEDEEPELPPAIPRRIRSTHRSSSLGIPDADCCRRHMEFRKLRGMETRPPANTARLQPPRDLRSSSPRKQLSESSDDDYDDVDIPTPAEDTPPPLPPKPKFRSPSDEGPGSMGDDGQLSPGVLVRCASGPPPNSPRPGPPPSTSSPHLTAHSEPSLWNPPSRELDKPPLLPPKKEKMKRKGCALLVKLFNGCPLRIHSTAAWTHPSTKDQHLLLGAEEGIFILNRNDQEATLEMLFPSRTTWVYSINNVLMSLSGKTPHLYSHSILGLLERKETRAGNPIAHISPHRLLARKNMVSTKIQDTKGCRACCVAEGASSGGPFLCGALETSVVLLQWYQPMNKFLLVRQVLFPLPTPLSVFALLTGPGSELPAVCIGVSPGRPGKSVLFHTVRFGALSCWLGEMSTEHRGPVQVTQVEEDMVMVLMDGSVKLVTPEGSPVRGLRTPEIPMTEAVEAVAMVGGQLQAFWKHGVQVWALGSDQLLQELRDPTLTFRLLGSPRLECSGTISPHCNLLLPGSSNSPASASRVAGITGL

| Molecule | pIC50 |
| --- | --- |
| 7-((5-(4-hydroxypiperidin-1-yl)pyridin-2-yl)amino)-4-(imidazo[1,2-a]pyrazin-5-yl)-2,3-dihydro-1H-pyrrolo[3,4-c]pyridin-1-one [I-376] | 6.00 to 7.00 |
| 7-((5-((3R,4R)-4-fluoro-3-hydroxypiperidin-1-yl)pyridin-2-yl)amino)-4-(imidazo[1,2-a]pyrazin-3-yl)isoindolin-1-one [I-434] | > 7.00 |
| CC1NC(=O)c2c(Nc3ccc(N4CCC(O)CC4)cn3)ccc(-c3ccnc4c3ccn4C)c21 (stereo in doubt) [I-286, (S)-7-((5-(4-hydroxypiperidin-1-yl)pyridin-2-yl)amino)-3-methyl-4-(1-methyl-1H-pyrrolo[2,3-b]pyridin-4-yl)isoindolin-1-one] | < 6.00 |
| Cc1ccn2c(-c3ccc(Nc4ccc([C@H]5CCOC5)c(CN(C)C)n4)c4c3CNC4=O)cnc2n1 (stereo in doubt) [I-561, 7-[[6-[(dimethylamino)-methyl]-5-tetralndrofliran-3-yl-2-pyridyl]amino] 4-(7-methylimidazo [1,2-a]pyrimidin-3-yl)isoindolin-1-one] | > 7.00 |
| O=C1NCc2c(-c3cnc4ccccn34)ncc(Nc3ccc(N4CCOCC4)cn3)c21 [I-198, 4-imidazo[1,2-a]pyridin-3-yl-7-[(5-morpholino-2-pyridyl)-amino]-2,3-dihydropyrrolo [3,4-c]pyridin-1-one] | 6.00 to 7.00 |
| O=C1NCc2c(-c3cnc4cc(F)ccn34)ccc(Nc3ccn(C4CCOCC4)n3)c21 [I-382, 4-(7-fluoroimidazo [1,2-a]pyridin-3-yl)-7-((1-(tetrahydro-2H-pyran-4-yl)-1H-pyrazol-3-yl)amino)isoin-dolin-1-one] | < 6.00 |
| O=C1NCc2c(-c3ncc4cnccn34)ccc(Nc3ccc(N4CCC(O)CC4)cn3)c21 [I-398, 7-((5-(4-hydroxypipendin-1-yl)pyridin-2-yl)amino)-4-(imidazo[1,5-a]pyrazin-3-yl)isoindolin-1-one] | 6.00 to 7.00 |
| Cc1ccn2c(-c3ncc(Nc4cccc(N5CC[C@@H]6CNC[C@@H]65)n4)c4c3CNC4=O)cnc2c1F [I-480, 7-[[6-[(3aR,6aR)-3.3a,4,5,6.6a-hexahydro-2H-pyrrolo[2,3-c]pyrrol-1-yl]-2-pyridyl]amino]-4-(8-fluoro-7-methyl-imidazo[1,2-a]pyridin-3-yl)-2,3-dihydropyrrolo [3,4-c]pyridin-1-one] | 6.00 to 7.00 |
| O=C1NCc2c(-c3cnc4cc(F)ccn34)ccc(Nc3ccc(N4CCO[C@@H]5CNC[C@@H]54)cn3)c21 [I-690] | > 7.00 |
| O=C1NCc2c(-c3cnc4cc(F)ccn34)ccc(Nc3ccc(N4CCO[C@H]5CNC[C@H]54)cn3)c21 [I-694, 4-(7-fluoroimidazo [1,2-a]pyridin-3-yl)-7-((5-((4aR,7aS)-hexahydro-pyrrolo[3,4-b][1.4]oxazin-4(4aH)-yl)pyridin-2-yl)amino)isoin-dolin-1-one] | > 7.00 |
| CN1CCN(c2nc(Nc3ccc(-c4cnc5cc(F)ccn45)c4c3C(=O)NC4)ccc2[C@H]2CCOC2)CC1 [I-801, (R)-4-(7-fluoroimidazo [1,2-a]pyridin-3-yl)-7-((6-(4-methylpiperazin-1-yl)-5-(tetrahydrofuran-3-yl)pyridin-2-yl)amino)isoin-dolin-1-one] | > 7.00 |
| CN1CCN(c2nc(Nc3ccc(-c4cnc5cc(F)ccn45)c4c3C(=O)NC4)ccc2[C@@H]2CCOC2)CC1 [I-802, (S)-4-(7-fluoroimidazo [1,2-a]pyridin-3-yl)-7-((6-(4-methylpiperazin-1-yl)-5-(tetrahydrofuran-3-yl)pyridin-2-yl)amino)isoin-dolin-1-one] | > 7.00 |
| CN(C)Cc1nc(Nc2cnc(-c3ccnc4c3ccn4C)c3c2C(=O)NC3)ccc1O[C@@H]1CCOC1 [I-805, (R)-7-((6-((dimethylamino)-methyl)-5-((tetrahydrofur-an-3-yl)oxy)pyridin-2-yl)amino)-4-(1-methyl-1H-pyrrolo[2,3-b]pyridin-4-yl)-2,3-dihydro-1H-pyrrolo[3,4-c]pyridin-1-one] | > 7.00 |
| CN1CC(Oc2nc(Nc3ccc(-c4cnc5cc(F)ccn45)c4c3C(=O)NC4)ccc2[C@@H]2CCOC2)C1 [I-816, (S)-4-(7-fluoroimidazo [1,2-a]pyridin-3-yl)-7-((6-((1-methylazetidin-3-yl]oxy)-5-(THF-3-yl)pyridin-2-yl)amino)isoin-dolin-1-one] | > 7.00 |
| COCC1(O)CCN(c2ccc(Nc3cnc(-c4ccnc5c4ccn5C)c4c3C(=O)NC4)nc2CN(C)C)CC1 [I-851, 7-1(6-[(dimethylamino)-methyl (-5-[4-hydroxy-4-(methoxymeth-yl)-1-piperidyl]-2-pyridyl]amino]-4-(1-methylpyrrolo [2,3-b]pyridin-4-yl)-2,3-dihydropyrrolo [3,4-c]pyridin-1-one Formate salt] | > 7.00 |

Further lines, results first:

| pIC50 | Molecule |
| --- | --- |
| > 7.00 | CN(C)Cc1nc(Nc2cnc(-c3cccc4c3ccn4C)c3c2C(=O)NC3)ccc1[C@@H]1CCOC1 (single isomer, unassigned) [I-540] |
| > 7.00 | CC1NC(=O)c2c(Nc3ccc(N4CCC(O)CC4)cn3)ccc(-c3ccnc4c3ccn4C)c21 (stereo in doubt) [I-287, (R)-7-((5-(4-hydroxypiperidin-1-yl)pyridin-2-yl)amino)-3-methyl-4-(1-methyl-1H-pyrrolo[2,3-b]pyridin-4-yl)isoindolin-1-one] |
| > 7.00 | Cc1cccn2c(-c3ccc(Nc4ccc(C5CCOC5)c(CN(C)C)n4)c4c3CNC4=O)cnc12 (stereo in doubt) [I-695, (S)-7-((6-((dimethylamino)-methyl)-5-(tetrahydrofuran-3-yl)pyridin-2-yl)amino)-4-(8-methylimidazo [1,2-a]pyridin-3-yl)isoindolin-1-one] |
| > 7.00 | Cc1cccn2c(-c3ccc(Nc4ccc(C5CCOC5)c(CN(C)C)n4)c4c3CNC4=O)cnc12 (stereo in doubt) [I-696, (R)-7-((6-((dimethylamino)-methyl)-5-(tetrahydrofuran-3-yl)pyridin-2-yl)amino)-4-(8-methylimidazo [1,2-a]pyridin-3-yl)isoindolin-1-one] |
| > 7.00 | COCC1CN(c2ccc(Nc3ccc(-c4cnc5cc(F)ccn45)c4c3C(=O)NC4)nc2CN(C)C)CCO1 (stereo in doubt) [I-711, (R)-7-((6-((dimethylamino)-methyl)-5-(2-(methoxymeth-yl)morpholino)pyridin-2-yl)amino)-4-(7-fluoroimidazo [1,2-a]pyridin-3-yl)isoindolin-1-one] |
| > 7.00 | O=C1NCc2c(-c3cnc4ccccn34)ccc(Nc3ccc(N4CCC(O)CC4)cn3)c21 [I-125, 7-[[5-(4-hydroxy-1-piperidyl)-2-pyridyl]amino]-4-imidazo[1,2-a]pyridin-3-yl-isoindolin-1-one] |
| > 7.00 | O=C1NCc2c(-c3cnc4cc(F)ccn34)ccc(Nc3ccc(N4CCC(O)CC4)cn3)c21 [I-138] |
| > 7.00 | O=C1NCc2c(-c3cnc4cc(CO)ccn34)ccc(Nc3ccc(N4CCC(O)CC4)cn3)c21 [I-177, 4-[7-(hydroxymeth-yl)imidazo[1,2-a]pyridin-3-yl]-7-[[5-(4-hydroxy-1-piperidyl)-2-pyripyl]amino] isoindolin-1-one] |
| > 7.00 | Cc1cnc2c(-c3ccc(Nc4ccc(N5CCC(O)CC5)cn4)c4c3CNC4=O)cnn2c1 [I-186, 7-[[5-(4-hydroxy-1-piperidyl)-2-pyridyl)amino]-4-(6-methylpyra-zolo[1,5-a]pyrimidin-3-yl)isoindolin-1-one] |
| > 7.00 | Cn1ccc2c(-c3ncc(Nc4ccc(N5CCNCC5)cn4)c4c3CNC4=O)cccc21 [I-266, 4-(1-methyl-1H-indol-4-yl)-7-((5-(piperazin-1-yl)pyridin-2-yl)amino)-2,3-dihydro-1H-pyrrolo[3,4-c]pyridin-1-one] |
| > 7.00 | O=C1NCc2c(-c3cnc4cc(F)ccn34)ccc(Nc3ccc(C4CCOCC4)cn3)c21 [I-341] |
| > 7.00 | Cc1ccc2c(-c3ccc(Nc4ccc(CN5CCOCC5)cn4)c4c3CNC4=O)cnn2c1 [I-469, 4-(6-methylpyrazolo[1,5-a]pyridin-3-yl)-7-[[5-(morpholino-methyl)-2-pyridyl]amino] isoindolin-1-one] |
| > 7.00 | Cc1ccn2c(-c3ncc(Nc4cccc(N5CCC6CNCC65)n4)c4c3CNC4=O)cnc2c1F (stereo not drawn) [I-481] |
| > 7.00 | CC(C)(O)[C@H]1CN(c2ccc(Nc3ccc(-c4cnc5cnccn45)c4c3C(=O)NC4)nc2)CCO1 [I-486, 7-[[5-[(2R)-2-(1-hydroxy-1-methylethyl)morpholin-4-yl]-2-pyridyl]amino]-4-imidazo[1,2-a]pyrazin-3-yl-isoindolin-1-one] |
| > 7.00 | O=C1NCc2c(-c3cnc4cc(F)ccn34)ccc(Nc3ccc(N4CCC(N5CCOCC5)CC4)cn3)c21 [I-488, 4-(7-fluoroimidazo [1,2-a]pyridin-3-yl)-7-[[5-(4-morpholino-1-piperidyl)-2-pyridyl]amino] isoindolin-1-one] |
| > 7.00 | Cc1cccn2c(-c3ncc(Nc4ccc(C5CCOC5)c(CN(C)C)n4)c4c3CNC4=O)cnc12 (stereo not drawn) [I-539] |
| > 7.00 | C[C@@H]1CN(c2ccc(Nc3ccc(-c4cnc5cc(F)ccn45)c4c3C(=O)NC4)nc2CN(C)C)CCO1 [I-541, 7-[[6-[(dimethylamino)-methyl]-5-[(2R)-2-methylmorpho-lin-4-yl]-2-pyridyl]amino] 4-(7-fluoroimidazo [1,2-a]pyridin-3-yl)isoindolin-1-one] |
| > 7.00 | Cn1ccc2c(-c3ncc(Nc4ccc(C5CCOC5)c(CN5CCCC5)n4)c4c3CNC4=O)ccnc21 (stereo not drawn) [I-552, 4-(1-methylpyrrolo [2,3-b]pyridin-4-yl)-7-[[6-(pyrrolidin-1-ylmethyl)-5-tetralndrofuran-3-yl-2-pyridyl]amino]-2,3-dihydropyrrolo [3,4-c]pyridin-1-one] |
